Test results reported in US10155004B2, “17-hydroxy-17-pentafluoroethyl-estra-4,9(10)-dien-11-aryl derivatives, method of production thereof and use thereof for the treatment of diseases” (BAYER INTELLECTUAL PROPERTY GMBH, priority 2009, dated 2018).

How the values were obtained:
[1] = target: T1, human progesterone receptor A (Homo sapiens, UniProt P06401); assay: Progesterone receptor-antagonistic action in stably transfected SK-N-MC cells, MTV-LUC reporter (PR-A); format: cell-based; settings: antagonism of 0.1 nmol/l promegestone, 24 hours, LUC reporter, read-out: Progesterone receptor A (PR-A) Potency IC50
T1 construct: expressed in transfected cells; host or cells: SK-N-MC human neuroblastoma cells, stably transfected
T1 sequence (P06401 1-769 isoform P06401-2): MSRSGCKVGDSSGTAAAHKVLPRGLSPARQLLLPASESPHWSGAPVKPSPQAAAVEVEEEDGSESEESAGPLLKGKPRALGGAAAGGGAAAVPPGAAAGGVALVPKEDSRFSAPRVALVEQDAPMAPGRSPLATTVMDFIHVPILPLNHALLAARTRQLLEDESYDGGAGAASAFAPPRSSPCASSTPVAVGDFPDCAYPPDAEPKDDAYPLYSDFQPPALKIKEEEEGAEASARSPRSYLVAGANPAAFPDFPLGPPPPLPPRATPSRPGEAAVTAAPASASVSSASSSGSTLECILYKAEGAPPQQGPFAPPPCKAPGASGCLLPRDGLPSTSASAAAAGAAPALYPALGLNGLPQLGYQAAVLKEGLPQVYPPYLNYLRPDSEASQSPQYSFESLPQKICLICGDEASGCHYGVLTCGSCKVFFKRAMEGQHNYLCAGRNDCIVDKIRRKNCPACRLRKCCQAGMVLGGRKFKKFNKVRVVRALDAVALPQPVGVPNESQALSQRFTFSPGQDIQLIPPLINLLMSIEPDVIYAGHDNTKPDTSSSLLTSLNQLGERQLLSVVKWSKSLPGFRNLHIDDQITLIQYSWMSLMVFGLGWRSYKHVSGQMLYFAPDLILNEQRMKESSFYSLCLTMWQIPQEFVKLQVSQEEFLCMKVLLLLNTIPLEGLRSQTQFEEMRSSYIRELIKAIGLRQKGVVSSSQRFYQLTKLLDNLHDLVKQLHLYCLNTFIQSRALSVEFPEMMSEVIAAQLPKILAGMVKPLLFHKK
Description: (§1) EXAMPLE 16 PROGESTERONE RECEPTOR-ANTAGONISTIC ACTION IN STABLE TRANSFECTANTS OF HUMAN NEUROBLASTOMA CELLS (SK-N-MC CELLS) WITH THE HUMAN PROGESTERONE A OR PROGESTERONE B RECEPTOR AND AN MTV-LUC REPORTER CONSTRUCT
(§2) SK-N-MC cells (human neuroblastoma cells), which have been stably transfected with plasmids, which express the human progesterone receptor B (pRChPR-B-neo) or the human progesterone receptor A (pRChPR-A-neo) and a reporter construct (pMMTV-LUC), were incubated for 24 hours either in the absence (negative control) or in the presence of increasing amounts of the respective test compound (0.01 nmol/l, 0.1 nmol/l 1 nmol/l, 10 nmol/l, 100 nmol/l and 1 μmol/l), in order to determine the agonistic efficacy. As positive control of reporter gene induction, the cells were treated with the synthetic gestagen promegestone (0.01 nmol/l, 0.1 nmol/l, 1 nmol/l, 10 nmol/l, 100 nmol/l and 1 μmol/l). For determination of the antagonistic activity, the cells were treated with 0.1 nmol/1 promegestone and additionally with increasing amounts of the respective test compound (0.01 nmol/l, 0.1 nmol/l, 1 nmol/l, 10 nmol/l, 100 nmol/l and 1 μmol/l). The activity of the LUC reporter gene (LUC=luciferase) was determined in the cell lysates and was measured as RLU (relative light units). All measured values are given as percentage efficacy and as EC50 or IC50 concentrations.
(§3) 11β-(4-Acetylphenyl)-20,20,21,21,21-pentafluoro-17-hydroxy-19-nor-17α-pregna-4,9-dien-3-one and 20,20,21,21,21-pentafluoro-17-hydroxy-11β-[4-(hydroxyacetyl)phenyl]-19-nor-17α-pregna-4,9-dien-3-one, very potent and therefore preferred examples from WO98/34947 and WO2008/058767, were tested as comparative compounds along with the test compound.

[2] = target: T2, human progesterone receptor B (Homo sapiens, UniProt P06401); assay: Progesterone receptor-antagonistic action in stably transfected SK-N-MC cells, MTV-LUC reporter (PR-B); format: cell-based; settings: antagonism of 0.1 nmol/l promegestone, 24 hours, LUC reporter, read-out: Progesterone receptor B (PR-B) Potency IC50
T2 construct: expressed in transfected cells; host or cells: SK-N-MC human neuroblastoma cells, stably transfected
T2 sequence (P06401 1-933): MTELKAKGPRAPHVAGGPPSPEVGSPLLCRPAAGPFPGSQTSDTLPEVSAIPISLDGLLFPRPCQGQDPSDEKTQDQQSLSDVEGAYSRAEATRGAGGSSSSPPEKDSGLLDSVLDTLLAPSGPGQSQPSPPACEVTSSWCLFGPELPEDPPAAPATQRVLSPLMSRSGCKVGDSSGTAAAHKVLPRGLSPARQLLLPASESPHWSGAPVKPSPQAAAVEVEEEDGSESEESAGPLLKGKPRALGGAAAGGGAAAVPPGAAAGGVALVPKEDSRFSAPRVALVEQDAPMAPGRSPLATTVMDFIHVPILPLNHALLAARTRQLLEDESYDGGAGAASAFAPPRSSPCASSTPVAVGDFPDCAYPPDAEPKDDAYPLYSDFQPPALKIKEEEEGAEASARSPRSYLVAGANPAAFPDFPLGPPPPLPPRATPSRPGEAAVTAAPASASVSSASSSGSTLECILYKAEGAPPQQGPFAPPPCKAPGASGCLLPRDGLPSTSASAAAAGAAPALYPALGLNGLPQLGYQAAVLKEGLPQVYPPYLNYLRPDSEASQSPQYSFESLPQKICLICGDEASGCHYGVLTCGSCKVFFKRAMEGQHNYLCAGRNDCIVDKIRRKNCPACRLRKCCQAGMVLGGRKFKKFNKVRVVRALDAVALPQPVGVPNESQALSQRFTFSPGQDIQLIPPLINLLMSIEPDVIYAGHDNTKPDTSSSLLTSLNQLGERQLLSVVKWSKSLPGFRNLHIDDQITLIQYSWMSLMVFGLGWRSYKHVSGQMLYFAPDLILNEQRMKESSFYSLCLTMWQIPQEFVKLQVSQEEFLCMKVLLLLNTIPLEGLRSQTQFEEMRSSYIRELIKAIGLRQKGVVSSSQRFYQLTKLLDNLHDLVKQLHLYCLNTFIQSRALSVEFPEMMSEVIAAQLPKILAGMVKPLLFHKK
Description: as §1, §2, §3

[3] = Metabolic stability in human liver microsomes (HLM); format: in vitro ADME; settings: from HLM half-life, well-stirred model, phase I reactions; 1 μM, 0.5 mg/ml protein
Description: EXAMPLE 18 METABOLIC STABILITY OF (11β,17β)-17-HYDROXY-11[4-(METHYLSULPHONYL)PHENYL]-17-(PENTAFLUOROETHYL)ESTRA-4,9-DIEN-3-ONE AND (11β,17β)-17-HYDROXY-11-[4′-(METHYLSULPHONYL)-BIPHENYL-4-YL]-17-(PENTAFLUOROETHYL)ESTRA-4,9-DIEN-3-ONE IN HUMAN LIVER MICROSOMES (HLM)
Isolated human liver microsomes (HLM) were used for assessing the metabolic stability of compounds of general formula I.
Incubations were carried out with 2.4 ml of HLM solution (0.5 mg/ml protein content), 30 μl of the test compound (final concentration 1 μM) and 0.6 ml of the cofactor mixture (=NADPH-generating system of 3 IU glucose-6-phosphate dehydrogenase, 14.6 mg glucose-6-phosphate, 1.2 mg NADP) at 37° C. in 100 mM phosphate buffer at pH 7.4. Samples are taken at 6 time points (2-60 min), precipitated with an equal volume of methanol and the recovery of the test substances used in the supernatant is determined by LC-MS/MS analysis. The intrinsic clearance of the substance in the liver microsome preparation can be calculated from the half-life found for the breakdown of the substance. Based on this, together with various physiological characteristics according to the well-stirred model, it is then possible to predict a (metabolic) in vivo clearance with respect to phase I reactions. […]

**Q.** What does the source list for `C[C@]12C[C@H](c3ccc(-c4ccc(S(C)(=O)=O)cc4)cc3)C3=C4CCC(=O)C=C4CC[C@H]3[C@@H]1CC[C@@]2(O)C(F)(F)C(F)(F)F` [Example 10, (11β,17β)-17-hydroxy-11-[4′-(methylsulphonyl)biphenyl-4-yl]-17-(pentafluoroethy)estra-4,9-dien-3-one]?
**A.** IC50 [1]: 0.011 nM; IC50 [2]: 0.013 nM; (metabolic) in vivo clearance in humans predicted [3]: < 0.17 mL/min/kg
